Assay results from EP1214345B1, “AGENTS FOR TREATING HUMAN DISEASES, ESPECIALLY FOR TREATING TUMORS SUCH AS COLONIC CANCERS AND MELANOMAS OR FOR REGENERATING TISSUE AND PROMOTING HAIR GROWTH” (MAX-DELBRÜCK-CENTRUM FÜR MOLEKULARE MEDIZIN, priority 1999, dated 2001).

biological target: T1, Komplexbildung von β-Catenin und LEF-1 (Homo sapiens, UniProt P35222); test: ELISA for inhibition of complex formation of β-Catenin and LEF-1 (recombinant His-tagged proteins, detection with antibody PA2); assay type: binding; conditions: recombinant LEF-1 adsorbed, 50-100 ng β-Catenin, 10% DMSO final, substances 1 µM to 10 mM, read-out: IC50 Hemmung der Komplexbildung von β-Catenin und LEF/TCF
T1 construct: made in house
T1 sequence (P35222 1-781): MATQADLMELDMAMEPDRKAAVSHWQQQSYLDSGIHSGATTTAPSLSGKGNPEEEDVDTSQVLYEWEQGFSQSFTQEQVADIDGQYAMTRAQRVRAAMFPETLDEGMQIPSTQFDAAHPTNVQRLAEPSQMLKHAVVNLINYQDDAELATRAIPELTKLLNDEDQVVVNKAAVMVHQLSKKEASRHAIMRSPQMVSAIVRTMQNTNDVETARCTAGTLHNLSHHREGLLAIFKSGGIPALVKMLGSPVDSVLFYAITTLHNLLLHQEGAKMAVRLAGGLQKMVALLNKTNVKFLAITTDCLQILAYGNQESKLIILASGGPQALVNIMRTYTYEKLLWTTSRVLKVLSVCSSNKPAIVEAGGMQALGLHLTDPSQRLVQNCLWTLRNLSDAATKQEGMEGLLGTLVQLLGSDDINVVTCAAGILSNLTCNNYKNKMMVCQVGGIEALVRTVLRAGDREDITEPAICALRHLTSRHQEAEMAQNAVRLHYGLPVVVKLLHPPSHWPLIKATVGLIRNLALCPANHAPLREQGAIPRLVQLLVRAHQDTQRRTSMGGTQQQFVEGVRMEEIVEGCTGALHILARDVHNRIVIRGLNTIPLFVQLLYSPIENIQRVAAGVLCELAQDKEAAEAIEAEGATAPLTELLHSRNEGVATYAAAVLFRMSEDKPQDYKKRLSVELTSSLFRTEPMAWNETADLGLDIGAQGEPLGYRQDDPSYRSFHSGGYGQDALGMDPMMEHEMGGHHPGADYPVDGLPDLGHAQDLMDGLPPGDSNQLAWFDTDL
Source text: Im Einzelnen wurden folgende Untersuchungen durchgerührt: • 1. Identifizierung von separaten, essentiellen Bindungsstellen von β-Catenin für die Interaktion mit LEF-1/TCF-4, mit den 20 und 15 Aminosäure-Repeats von APC oder Conductin/Axin Basierend auf der Röntgen-Kristall-Strukturanalyse der Armadillo-Domäne von β-Catenin (Huber et al., 1997) wurden ausgewählte basische und aromatische Aminosäure-Reste durch Alanin-Reste substituiert und die Punktmutanten auf Interaktion mit den Bindungspartnern von β-Catenin im Hefe-2-Hybrid-System analysiert (Abb. 1). Die Mutationen, welche spezifische Interaktionen blockieren, bilden Cluster in separaten Subregionen der Domäne. Sie markieren die essentiellen Kontaktpunkte in den spezifischen Bindungsstellen für die Interaktion mit LEF/TCF (Lys 435, Arg 469, His 470, Lys 508, Arg 515), mit den 20 Aminosäure-Repeats von APC (Trp 383, Lys 345), mit den 15 Aminosäure-Repeats von APC (Arg 386), oder mit Conductin (Phe 253, His 260, Lys 292). Die erweiterten Interaktionsstellen sind der Abb 1 zu entnehmen. • 2. Analyse der Moleküloberfläche von β-Catenin im Bereich der essentiellen Bindungsstelle für LEF/TCF Ausgehend von den Daten zur Röntgenkristallstruktur von β-Catenin wurde mit den Programmen Grasp und LUDI (MSI) die Moleküloberfläche im Bereich der Bindungsstelle berechnet. Es ist hierdurch gelungen eine hydrophobe Tasche zu identifizieren (Abb.2), die von den folgenden Aminosäuren umrandet ist: Val 358, Met 363, Ala 391, Ala 392, Thr 393, Lys 394, Gln 395, Met 398, Leu 401, Leu 402, Ile 423, Asn 426, Leu 427, Thr 428, Cys 429, Asn 430, Asn 431, Asn 434, Met 437, Val 438. Diese Tasche lokalisiert in engster Nachbarschaft zu der essentiellen Bindungsstelle für LEF/TCF. Sie ist von großer Bedeutung für die Computer-gestützte Durchmusterung von Substanzbibliotheken zur Selektion von Molekülen, die in dieser Tasche binden. Die Idee primär hydrophobe Wechselwirkungen in der Tasche zum Ausgangspunkt zu wählen, hat den energetischen Vorteil, das die Substanzen nicht mit der Hydrathülle der geladenen Aminosäure-Reste der Oberfläche kompetieren müssen. Diese Substanzen stellen somit nach gezielter Modifikation potente Therapeutika zur Behandlung von Tumoren dar, da die Interaktion von LEF/TCF mit β-Catenin ein frühes Ereignis zur Entstehung von Tumoren darstellt. Sie wurden experimentell auf ihre Fähigkeit zur Hemmung der onkogenen Interaktion getestet (ELISA) und sollen modifiziert werden. Das molekulare Modellieren der Substanzen in der Tasche basiert auf der Idee, die Wechselwirkungen in der Tasche selbst zu stabilisieren und zusätzliche Kontakte zu den essentiellen Aminosäure-Resten der LEF/TCF-Bindungsstelle zu schaffen. Durch diese Strategie sollen die Substanzen in ihrer Wirkung optimiert werden. • 3. Identifizierung von Substanzen die in der hydrophoben Tasche binden Es wurden Computer-gestützt Substanzbibliotheken durchmustert und deren Moleküle auf stabilisierende Wechselwirkungen in der hydrophoben Tasche ausgewählt. Die ausgewählten Substanzen wurden auf Hemmung der Komplexbildung von β-Catenin und LEF-1 im ELISA experimentell getestet. […] Diese Kernstruktur besteht aus einem aromatischem Ring (beim Cefamandole am Kohlenstoffatom 17, Numerierung siehe "Positiv-Liste")), einer organischen Komponente, die der Struktur des Ala-Ala Dipeptides ähnelt, und einem β-Lactam- und Thiazolring. Mit dem aromatischen Ring wurde die Substanz in der beschriebenen hydrophoben Tasche eingepaßt. […]

SMILES	IC50 [µM]
Cn1nnnc1SCC1=C(C(=O)O)N2C(=O)[C@@H](NC(=O)[C@H](OC=O)c3ccccc3)[C@H]2SC1 [Cefamandole-Nafate]	50 to 100
Cn1nnnc1SCC1=C(C(=O)O)N2C(=O)[C@@H](NC(=O)[C@H](O)c3ccccc3)[C@H]2SC1 [Cefamandole]	25
NC(=O)c1cc[n+](CC2=C(C(=O)O)N3C(=O)[C@@H](NC(=O)[C@@H](c4ccccc4)S(=O)(=O)[O-])[C@H]3SC2)cc1 [Cefsulodine]	50 to 100

Results, then the molecule that gave them:

IC50 [µM]	SMILES
100	CCCCCCCCCCCCCCCCCC(=O)OC[C@H]1OC(O)[C@H](NC(C)=O)[C@@H](O[C@H](C)C(=O)N[C@@H](C)C(=O)N[C@H](CCC(=O)O)C(N)=O)[C@@H]1O (stereo partly drawn) [AC-(6-O-Stearoyl)-Muramyl-Ala-D-Isoglutamine]
50 to 100	CC1=C(C(=O)O)N2C(=O)[C@@H](NC(=O)[C@H](N)c3ccc(O)cc3)[C@H]2SC1 [Cefadroxil]
